Results: patent publication US20020019374A1, “Salicylohydrazide derivatives, processes and intermediates for their preparation, compositions comprising them, and their use” (priority 2000, published 2002)

melting point: 163 to 168 °C
SMILES: C/C(=N\NC(=O)c1cccc([N+](=O)[O-])c1O)c1ccccc1 [I-1, 3-nitrosalicylic (1-phenylethylidene)hydrazide]
